Measurements as given in BindingDB's records for PubMed 39326269 (Second Military Medical University).
Where a SMILES comes first, the peptide text is derived from it. Bridges are numbered along the chain shown (N, C = ends). [ ]: non-standard residue; d: D form. S5 = C=CCCC[C@](C)(N)C(=O)O

How the values were obtained:
GTPase KRas = GTPase KRas (Homo sapiens, UniProt P01116); assay: Binding affinity to KRas G12C mutant (unknown origin) assessed as dissociation constant by biolayer interferometry assay
[1] = Inhibition of pERK in human ASPC1 cells measured after 18 hr
[2] = Inhibition of pERK in human ASPC1 cells measured after 1 hr

GTPase KRas, sequence (P01116 whole entry G12C): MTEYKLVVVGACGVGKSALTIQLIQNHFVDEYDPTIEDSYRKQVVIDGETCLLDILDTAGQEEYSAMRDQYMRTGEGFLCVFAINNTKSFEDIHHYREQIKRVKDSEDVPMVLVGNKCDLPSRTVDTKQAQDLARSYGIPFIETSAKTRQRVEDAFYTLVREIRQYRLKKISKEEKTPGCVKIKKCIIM

Row | Structure (SMILES) | Kd (GTPase KRas) | EC50 [1] | EC50 [2]
1 | CC[C@H](C)[C@H](NC(=O)CNC(=O)[C@H](Cc1ccccc1)NC(C)=O)C(=O)N[C@@]1(C)CCCC=CCCC[C@@](C)(C(=O)N[C@@H](CC(C)C)C(=O)N[C@@H](CCCCN)C(=O)N[C@H](C(N)=O)[C@@H](C)O)NC(=O)[C@H](CC(N)=O)NC(=O)[C@H]([C@@H](C)O)NC(=O)[C@H](CC(C)C)NC1=O (Ac-FGI[S5]LTN[S5]LKT-NH2; staple 4-8) | 7670 nM | – | –
2 | CC[C@H](C)[C@@H]1NC(=O)[C@H](Cc2ccc(O)cc2)NC(=O)[C@H](CC(C)C)NC(=O)[C@@H]2CCCN2C(=O)[C@H](NC(=O)[C@@H](CCCNC(=N)N)NC(=O)[C@@H](CCCNC(=N)N)NC(=O)[C@@H](CCCNC(=N)N)NC(=O)[C@@H](CCCNC(=N)N)NC(=O)[C@H](CCCCN=[N+]=[N-])NC(C)=O)CSSC[C@@H](C(=O)N[C@H](CCCNC(=N)N)C(=O)N[C@H](CCCNC(=N)N)C(=O)N[C@H](CCCNC(=N)N)C(=O)N[C@H](CCCNC(=N)N)C(N)=O)NC(=O)[C@H](C(C)C)NC(=O)[C@@H]2CCCN2C(=O)[C@H](CC(=O)O)NC(=O)[C@H](Cc2ccc(O)cc2)NC(=O)[C@](C)(CO)NC1=O | – | 1500 nM | 1200 nM
